Data as given in patent US10952434B2, “Compositions and methods for attracting insects” (The United States of America, as Represented by the …, priority 2016, dated 2021).

Tests used:
female Aedes aegypti [1] = test: Flight tunnel mosquito bioassay; assay type: in vivo; conditions: for fed (mean of triplicates) / probed (mean of triplicates): paired with control; for feeding attraction, in words: three different concentrations
Description: Mosquitoes: Aedes aegypti (Liverpool) were reared in an insectary using standard rearing procedures. Approximately 50 larvae were reared in plastic cups (13×7×7.5 cm) at 27±1° C., and were fed ground up fish pellets. Adults were contained in plastic cartons covered by nylon screening and were fed using cotton pads soaked in a 10% glucose solution. Prior to blood feeding, 20 adult females, approximately 6 to 8 days old, were aspirated out of the rearing cartons and placed in to a stock cage (20×20×20 cm). Flight Tunnel Mosquito Bioassay: The assay system consists of a six well reservoir placed at the upwind end of a flight tunnel ([…]). Temperature and humidity of the flight tunnel were maintained at rearing conditions as described above. Air was constantly pushed through the flight tunnel at a wind speed of 35 ft/min. The four center wells of the six well reservoir were utilized in these bioassays. One of the 3 cm×4 cm wells contained 6 ml of citrate-phosphate-dextrose-adenine (CPDA) solution and three wells contained 6 ml of CPDA solution supplemented with adenosine triphosphate (ATP) (Sigma Chemical Co., St. Louis, Mo.). A constant-temperature water circulator warmed the reservoir to 38° C. A collagen membrane (Devro, Sandy Run, S.C.) was placed over the wells and secured to the reservoir with a light coat of high-vacuum grease (Dow Corning Corp., Midland, Mich.). The membranes were replaced after each replicate observation and additional substrate was added as needed. The reservoir and CPDA solution was used for one replicate. Twenty mosquitoes were aspirated into a cylindrical release canister (20.5 mm×7 mm) containing a mesh screen on one end and a damper on the opposite end (Precision Plastics, Inc., Beltsville, Md.). Mosquitoes were allowed to acclimate in the canister for ten minutes and then were utilized in bioassays. The canister was placed downwind of the reservoir in the flight tunnel. Human breath was introduced in a plume into the tunnel for one minute prior to opening of the release canister. Mosquitoes were then released into the flight tunnel where the number of mosquitoes biting (proboscis inserted through the membrane) within each cell during the 10-min exposure was recorded. The solution in each well consisted of either CPDA in deionized water or one of the three experimental solutions, 10^−2M, 10^−3 M, or 10^−4 M ATP with CPDA, each marked with a randomly assigned food dye color (Betty Crocker). The position of each colored solution in the reservoir was also randomized. Mosquitoes were used once in a test and then aspirated for determination of engorgement. Several attractant candidates were compared one on one with each other, and with CO2 in the flight tunnel to evaluate efficacy.

mosquitoes = conditions: compared with matching control traps baited with CO2; cited from earlier work
[2] = tested on: host seeking Aedes albopictus females; test: Field study with BG Sentinel traps in yards; assay type: in vivo; conditions: BG Sentinel trap with attractant lure, 24 hr periods, 10 yards; control 3-4
Description: In field studies, Okoumal (1) was evaluated as an attractant for host seeking Aedes albopictus females in the BG Sentinel traps placed in different areas (yards). In the before and after control intervention evaluation, one standard BG Sentinel mosquito trap was placed in each of the 10 yards and mosquitoes were trapped for 24 hr periods in ten replicates. The first five replicates were before adding Okoumal attractant as intervention. The second set of five replicates included additional lure to the BG Sentinel trap. The traps with attractant lures collected more mean mosquitoes per trap per day (6-7 vs 3-4 mosquitoes), compared to control.

Ae. aegypti = test: Attract and kill bait evaluation in bucket; assay type: in vivo, Aedes aegypti; conditions: sugar gel containing pyriproxyfen spiked with 5 ml of Okoumal
Source text: Attract and Kill Bait Evaluation: The assay system consists of a 1L plastic bucket covered with screened lid. A divider was placed to separate attract and kill bait from the control feeding. 50 Adult mosquitoes used in tests were between 5-10 days old, and were kept on water pads only for 24 hrs. prior to testing. Ae. aegypti used in each test session were all loaded into plastic bucket with attract and kill bait and control feeding formulation made with agarose gel containing sugar and color. In the preliminary semi-field trial, baits were charged with attractant candidates and deployed in to the either hut or tents. In one experiment 30 adult female Aedes aegypti mosquitoes were released, while in another trial at different location 20 adult female Aedes aegypti mosquitoes were released and observed for the attraction or attract-kill effect of the candidates. To incorporate invented field stable and long lasting attractants in the baits various putative devices were constructed and few of these attract and kill bait formulations were evaluated in the insectary and semi-field conditions. Data analysis: Attraction assay data were analyzed using the Wilcoxon two-sample test (PROC NPAR1WAY, SAS 1999) to examine the difference between the numbers of mosquitoes in control from treated baits. […]

female Aedes aegypti [3] = test: K&D module high-throughput feeding assay; assay type: in vivo; conditions: for mean fed / mean probed: five females/cell
Description: Highthrouhput Feeding Assay: The K&D module was developed at USDA for evaluating feeding deterrence and toxicity of candidate topical repellents against hemophagus arthropod vectors (Klun, J. A., and M. Debboun, J. Med. Entomol., 37: 177-181 (2000)). In the present study the K&D module was used as a highthrouhput screening tool to evaluate response of Ae. aegypti to attractant\feeding stimuli.
In vitro bioassays were conducted as described by Klun et. al., 2000. […] The three treatments were randomly assigned to consecutive cells in 2,6-cell reservoirs connected in series to a single water-bath pump; thus, 4 replicates could be tested/run.
Tests were performed in an Air Science USA hood, with an air movement velocity of approx. 110-120 ft./min., temperature of 25-27° C., and RH of 15-25%. A six-celled reservoir was connected to and heated by a constant-temperature (38° C.) water circulator (Lauda E100, Wobser GMGH and Co., Konigshofell, Germany).
Prior to each test, the upper surface of each reservoir was coated with a thin layer of high-vacuum silicone grease (Dow Corning Corp., Midland, Mich.), and the cells then filled (approx. 6 ml. capacity) or topped-off with the following: (1) expired human red blood cells suspended in citrate-phosphate-dextrose-adenine (CPDA) solution, not more than 1 month past expiration date, and to which 110 mg ATP/35 ml. blood-CPDA had been added on the day of testing; or (2) CPDA+ATP×10^−3, usually made up or diluted to 10^−3 ATP on the day of testing.
The filled cells were then covered with an Edicol collagen membrane strip (Devro, Sandy Run, S.C.), and then with a just-treated (110 μl of 4.54 nmol/μl treatment or control solution) organdy cloth strip (G Street Fabrics, Rockville, Md.).
Mosquitoes used in the tests were either Aedes aegypti (Liverpool) or Aedes albopictus (Asian Tiger mosquitoes (ATMs)). Ae. aegypti and Ae. albopictus were originally obtained from colonies at the Walter Reed Army Institute of Research (WRAIR), Silver Spring, Md., and were maintained in colonies at the Beltsville Agricultural Research Center, USDA, ARS, Beltsville, Md. The larvae were reared (Gerber, E. J., et al., Manual for mosquito rearing and experimental techniques, Am. Mosq. Control Assoc. Bull. 5 (revised), AMCA, Inc., Lake Charles, La. (1994)) by feeding larvae ground tropical fish pellets (Hikari Cichlid Gold Fish Food, Kamihata Fish Ind. Ltd., Himeji, Japan, www.hikari.info). Adults were held at 12:12 h (light:dark) photoperiod at 26° C. and 50% RH, and fed with a cotton pad moistened with 10% aqueous sucrose solution. For both species, adult mosquitoes used in the tests were between 5-10 days old, and were kept on water pads only for 24 hrs. prior to testing. Ae. aegypti used in a given test session were all loaded into K&D modules at one time, with five adult females/cell, and tested within I-2 hrs.
K&D modules containing five adult females/cell were placed over a Teflon separator atop each reservoir; the sliding floors opened allowing access to the treated organdy cloth and membrane-covered cell, and the number of mosquitoes biting (proboscis inserted through the cloth) and/or observed to be engorged within each cell at the end of a 3-5 min. exposure period was recorded. Mosquitoes were used only once in a test, and then frozen and discarded.
Only tests in which three or more females fed in the control cell were analyzed, as lower feeding rates are indicative of substandard feeding readiness of that group of mosquitoes.
Feeding/probing responses observed on control, standard, and experimental compound-treated cells were compared using an R-code statistical analysis (Chauhan, K. R., et al., Journal of Medical Entomology, 42: 643-646 (2005)).

[4] = tested on: Aedes albopictus, Ae. triseratus, and Ae. japonicus; test: Field study with oviposition cups; assay type: in vivo; conditions: 0 to 1% in oviposition cups, forested area, retrieved after 10 days
Description: In the second field study different concentrations (0 to 1%) of Okoumal (1) were added to oviposition cups. Oviposition cups were placed in forested area that has known populations of Aedes albopictus, Ae. triseratus, and Ae. japonicus. Ovicups were retrieved after 10 days and accessed for the presence of mosquito eggs of different species.

[5] = 0.1% concentration, paired with CO2 (dry ice) + air
[6] = 1% concentration, paired with CO2 (dry ice) + air
[7] = CO2 (dry ice) + air paired with 0.1% Okoumal
[8] = CO2 (dry ice) + air paired with 0.1% cyclopentanone
[9] = CO2 (dry ice) + air paired with 1% Okoumal
[10] = CO2 (dry ice) + air paired with 1% cyclopentanone
[11] = CO2 (dry ice) + air paired with air

SMILES | fed (mean of triplicates) (female Aedes aegypti [1]; 1.00% concentration) | probed (mean of triplicates) (female Aedes aegypti [1]; 1.00% concentration) | fed (mean of triplicates) (female Aedes aegypti [1]; 5% concentration) | probed (mean of triplicates) (female Aedes aegypti [1]; 5% concentration) | fed (mean of triplicates) (female Aedes aegypti [1]; 0.10% concentration) | probed (mean of triplicates) (female Aedes aegypti [1]; 0.10% concentration) | feeding attraction, in words (female Aedes aegypti [1]) | further results
CC1COC2(CCCC2)O1 (centres unmarked) [Compound I-95] | 3.3 | 12 | 3.3 | 8.3 | – | – | – | –
COC1(OC)CCCCC1 [Compound I-182] | 2.7 | 5.7 | 2 | 12.3 | – | – | – | –
COC1(OC)CCCC1 [Compound I-152] | 0.7 | 1.3 | 1 | 1.7 | – | – | – | –
O=C1CCCC1 [cyclopentanone, reference compound] | 2 | 5.7 | 1 | 1.7 | 3 | 7 | – | mean fed (female Aedes aegypti [1]; [5]): 2.6; mean probed (female Aedes aegypti [1]; [5]): 2.2; mean fed (female Aedes aegypti [1]; [6]): 2.1; mean probed (female Aedes aegypti [1]; [6]): 2.8; attractiveness of baited traps, in words (mosquitoes): equivalent to that of matching control traps baited with CO2
CC1COC2(CCCCC2)O1 (centres unmarked) [Compound I-96] | 2.7 | 8.3 | 2.7 | 12.7 | 3 | 6.3 | consistent feeding attraction | –
O=C1CCCCC1 [cyclohexanone, reference compound] | 0.3 | 0.7 | 1.7 | 3.7 | – | – | – | –
C1CCC2(C1)OCCO2 [Compound I-90] | 4 | 8.3 | 3 | 8.7 | 2.7 | 5.7 | consistent feeding attraction | –
CC1COC(C)(c2ccc3c(c2)C(C)(C)CCC3(C)C)O1 (centres unmarked) [Okoumal] | 2.8 | 9.7 | 2.3 | 13.3 | 3.3 | 18.3 | consistent feeding attraction | mean fed (female Aedes aegypti [1]; [5]): 3.9; mean probed (female Aedes aegypti [1]; [5]): 3.6; mean fed (female Aedes aegypti [1]; [6]): 3.8; mean probed (female Aedes aegypti [1]; [6]): 4.1; feeding (host seeking) preference, in words (female Aedes aegypti [1]; compared with CO2 and cyclopentanone, host seeking female mosquitoes): consistent feeding (host seeking) preference; mean mosquitoes per trap per day [2]: 6-7 mosquitoes; mosquitoes in the bucket preferring feeding on treated gel over control sugar gel (Ae. aegypti): 90%; mean fed (female Aedes aegypti [3]; 0.1% concentration): 3.6; mean probed (female Aedes aegypti [3]; 0.1% concentration): 3.3; mean fed (female Aedes aegypti [3]; 0.25% concentration): 2.8; mean probed (female Aedes aegypti [3]; 0.25% concentration): 3; mean fed (female Aedes aegypti [3]; 1% concentration): 3.5; mean probed (female Aedes aegypti [3]; 1% concentration): 3.9; mean fed (female Aedes aegypti [3]; 5% concentration): 2.8; mean probed (female Aedes aegypti [3]; 5% concentration): 2.9; feeding compared with control, in words (female Aedes aegypti [3]; four different concentrations, twenty replicates): consistent feeding on par with either control or better; effect on numbers of oviposited eggs, in words [4]: significant effect of Okoumal concentration on numbers of oviposited eggs
CCN(CC)C(=O)c1cccc(C)c1 [Deet, reference compound] | – | – | – | – | – | – | – | mean fed (female Aedes aegypti [3]; Deet standard (4.54 nmol/μl)): 0.1; mean probed (female Aedes aegypti [3]; Deet standard (4.54 nmol/μl)): 0.1
O=C=O [CO2 (dry ice), Carbon dioxide, reference compound] | – | – | – | – | – | – | – | mean fed (female Aedes aegypti [1]; [7]): 3; mean probed (female Aedes aegypti [1]; [7]): 3.7; mean fed (female Aedes aegypti [1]; [8]): 2.8; mean probed (female Aedes aegypti [1]; [8]): 3.1; mean fed (female Aedes aegypti [1]; [9]): 2; mean probed (female Aedes aegypti [1]; [9]): 2.2; mean fed (female Aedes aegypti [1]; [10]): 2.1; mean probed (female Aedes aegypti [1]; [10]): 2.3; mean fed (female Aedes aegypti [1]; [11]): 1.8; mean probed (female Aedes aegypti [1]; [11]): 2.1
